Test results reported in US11047004B2, “Thiolated nucleotide analogues for nucleic acid synthesis” (LIFE TECHNOLOGIES CORPORATION, priority 2014, dated 2021).

Experiments:
[1] = free amino acid in solution; cited from earlier work
Bst polymerase = Bst polymerase (Geobacillus stearothermophilus, UniProt P52026); assay: Polymerase extension assay with fluorescein-labeled hairpin oligonucleotide (fluorescence increase on incorporation); format: biochemical, Bacillus stearothermophilus; conditions: 2 nM Bst polymerase, 250 nM hairpin oligonucleotide, 37° C., ex 490 nm / em 525 nm; for polymerase incorporation reaction (fluorescence increase), CIP-treated nucleotide solution: nucleotide pre-treated with CIP
From the text: For the polymerase extension assays, a fluorescein-labeled oligonucleotide substrate was designed, and used in an assay to detect nucleotide incorporation. The labeled oligonucleotide is a hairpin-type oligonucleotide with a T-fluorescein residue located at the third position from the 3′ end. The 5′ end of the labeled oligonucleotide is a single stranded sequence 3′-AGGGGGG-5′. Thus, the first nucleotide to be inserted by a polymerase onto the 3′ end of the substrate is a TTP. The 5′ and 3′ ends of the hairpin oligonucleotide is shown below. A fluorescein is attached to the T residue, which is underlined and bolded: • TGC 3′ • […] 5′ (SEQ ID NO:83)
Without wishing to be bound by theory, it is postulated that when the third base from the 3′ end is labeled with a fluorphore (in this case the labeled nucleotide is a T), and when the 3′ terminal base is a cytosine or guanosine, then the fluorphore is in a stacked position with the 3′ terminal base, resulting in quenching the fluorescence from the fluorphore. When a thymidine is incorporated at the terminal 3′ end (e.g., via polymerase-mediated nucleotide incorporation), the fluorphore is un-quenched. This assay can be performed with the hairpin molecule described herein, or with two annealed single-strands that mimic the linear ends of this hairpin molecule.
A solution was prepared in the same buffer as above containing 250 nM of the hairpin oligonucleotide, 16 μM of a short oligonucleotide (5′-CCCCCC-3′, acting as a signal amplifier), and 2 nM of Bst polymerase. […] The plate was equilibrated at 37° C. in a fluorescence microplate reader, and then the dNTP solutions were mixed with the solutions of polymerase and fluorogenic hairpin oligonucleotide. The polymerase catalyzed incorporation reactions were followed by recording the fluorescence intensity changes using 490 nm for excitation and 525 nm for the emission. When a polymerase reaction occurred, an increase in the fluorescence intensity over time was detected (see FIG. 4). There was no change in fluorescence when no nucleotide incorporation reaction occurred (see FIG. 4).

[2] = target: calf intestinal phosphatase (CIP) (Bos taurus, UniProt P19111); assay: Phosphatase resistance: calf intestinal phosphatase (CIP) pre-treatment, then polymerase extension read-out; format: biochemical; conditions: 10 u/μL CIP, 37° C., 20 min, read-out by polymerase incorporation fluorescence (FIG. 4)
Experimental: As an example of this resistant, representative results from an exemplary experiment are depicted in FIG. 4. […] Phosphatase-mediated hydrolysis is reflected as a non-increasing level of fluorescence, whereas phosphatase resistance is reflected as an increase in normalized fluorescence intensity.
Two solutions were prepared as follows in 20 mM Tris HCl, pH 7.5, 20 mM NaCl, 10 mM MgCl2: (A) 80 μM of TTP, and (B) 200 μM of γ-S-TTP.
To both solution was added 1.5 μL of 10 u/μL of calf intestinal phosphatase (CIP), and the solutions were incubated at 37° C. for 20 min. The phosphatase was then removed by passing the solutions through a 10,000 molecular weight cut-off ultrafiltration membrane. The resulting solutions were then used for the polymerase extension reactions.
A solution was prepared in the same buffer as above containing 250 nM of the hairpin oligonucleotide, 16 μM of a short oligonucleotide (5′-CCCCCC-3′, acting as a signal amplifier), and 2 nM of Bst polymerase. Then 50 μL aliquots of this solution were placed in individual wells of a microtiter plate. In separate wells of the same plate were placed 50 μL aliquots of the CIP-treated solutions from above, as well as identical solutions that had not been treated with CIP. The plate was equilibrated at 37° C. in a fluorescence microplate reader, and then the dNTP solutions were mixed with the solutions of polymerase and fluorogenic hairpin oligonucleotide. The polymerase catalyzed incorporation reactions were followed by recording the fluorescence intensity changes using 490 nm for excitation and 525 nm for the emission. When a polymerase reaction occurred, an increase in the fluorescence intensity over time was detected (see FIG. 4). There was no change in fluorescence when no nucleotide incorporation reaction occurred (see FIG. 4).
A treatment of synthetically prepared γ-S-TTP with CIP can be used to remove any traces of contaminating dTTP that may be present in the preparation of γ-S-TTP.

Bst polymerase, sequence (P52026 other isoform, or with tags, fused parts or gaps with the stated changes): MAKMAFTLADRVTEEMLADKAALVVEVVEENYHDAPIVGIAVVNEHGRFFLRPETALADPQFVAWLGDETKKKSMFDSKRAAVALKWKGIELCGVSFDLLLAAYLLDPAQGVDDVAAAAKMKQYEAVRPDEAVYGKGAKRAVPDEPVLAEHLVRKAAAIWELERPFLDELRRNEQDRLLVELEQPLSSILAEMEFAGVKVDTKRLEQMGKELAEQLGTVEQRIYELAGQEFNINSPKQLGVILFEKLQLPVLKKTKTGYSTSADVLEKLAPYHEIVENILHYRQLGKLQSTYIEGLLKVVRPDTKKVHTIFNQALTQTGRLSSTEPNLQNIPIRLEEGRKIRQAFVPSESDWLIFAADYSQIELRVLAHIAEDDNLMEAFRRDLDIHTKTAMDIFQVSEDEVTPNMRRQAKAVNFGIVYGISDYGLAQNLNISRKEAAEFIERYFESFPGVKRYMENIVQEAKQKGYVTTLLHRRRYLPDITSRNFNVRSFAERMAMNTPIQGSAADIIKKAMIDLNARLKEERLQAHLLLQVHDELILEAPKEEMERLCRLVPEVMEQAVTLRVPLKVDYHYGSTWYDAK
calf intestinal phosphatase (CIP), sequence (P19111 20-506 limits assumed): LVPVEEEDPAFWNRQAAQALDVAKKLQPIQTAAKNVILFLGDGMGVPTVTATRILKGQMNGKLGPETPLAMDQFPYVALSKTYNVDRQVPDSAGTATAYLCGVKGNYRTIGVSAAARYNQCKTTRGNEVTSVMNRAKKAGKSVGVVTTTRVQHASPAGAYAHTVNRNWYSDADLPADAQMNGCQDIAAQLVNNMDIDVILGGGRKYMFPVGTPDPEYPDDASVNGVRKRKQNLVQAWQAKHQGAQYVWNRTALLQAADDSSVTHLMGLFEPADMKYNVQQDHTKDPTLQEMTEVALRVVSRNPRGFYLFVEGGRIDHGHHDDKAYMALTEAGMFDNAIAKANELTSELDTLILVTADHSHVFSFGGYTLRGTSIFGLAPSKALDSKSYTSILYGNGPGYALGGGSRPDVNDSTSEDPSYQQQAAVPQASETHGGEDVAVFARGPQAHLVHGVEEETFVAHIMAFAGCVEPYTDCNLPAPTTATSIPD

CC[C@H](C)[C@H](N)C(=O)O [Isoleucine]
pKa α-amino [1]: 9.76

Cc1cn([C@H]2C[C@H](O)[C@@H](COP(=O)(O)OP(=O)(O)OP(O)(O)=S)O2)c(=O)[nH]c1=O [γ-S-TTP, γ-S-thymidinyl-triphosphate]
polymerase incorporation reaction (fluorescence increase), non-treated nucleotide solution (Bst polymerase; nucleotide not treated with CIP): polymerase reactions can be detected
polymerase incorporation reaction (fluorescence increase), CIP-treated nucleotide solution (Bst polymerase): polymerase reactions can be detected
resistance to degradation by calf intestinal (alkaline) phosphatase [2]: resistant to the alkaline phosphatase activity
resistance to degradation by calf intestinal (alkaline) phosphatase ([2]; listed as gamma STTP): showed a resistance to phosphatase

C[C@H](N)C(=O)O [Alanine]
pKa α-carboxylic acid [1]: 2.35

N[C@@H](CC(=O)O)C(=O)O [Aspartic Acid]
pKa α-amino [1]: 9.82

N[C@@H](Cc1ccccc1)C(=O)O [Phenylalanine]
pKa α-amino [1]: 9.24
pKa α-carboxylic acid [1]: 2.58

CC(C)[C@H](N)C(=O)O [Valine]
pKa α-carboxylic acid [1]: 2.29

Cc1cn([C@H]2C[C@H](O)[C@@H](COP(=O)(O)OP(=O)(O)OP(=O)(O)O)O2)c(=O)[nH]c1=O [TTP, thymidinyl-triphosphate, reference compound]
polymerase incorporation reaction (fluorescence increase), CIP-treated nucleotide solution (Bst polymerase): no incorporation reaction takes place
resistance to degradation by calf intestinal (alkaline) phosphatase [2]: not reflected
